Measured values published in patent EP4664463A1, “COMPUTER-IMPLEMENTED METHOD FOR OLFACTORY PROPERTY PREDICTION” (Givaudan SA, priority 2024, dated 2025).
pEC50: −log10 of the molar value. Read-outs that look alike come from different tables or passages of the source. Marks after values point to notes of the source that are not given here.

Tests used:
[1] = molecular target: T1, OR5A1 (Homo sapiens, UniProt Q8NGJ0); assay: Luciferase dose-response, wild-type vs changed C-terminus (SEQ ID NO: 86); assay type: cell-based
T1 construct: expressed in transfected cells; host or cells: HEK293T cells stably expressing human RTP1S (V227I) and RTP2 (L220R)

[2] = molecular target: T2, OR5A1 (Homo sapiens, UniProt Q8NGJ0, I300V); assay: as above; assay type: cell-based
T2 construct: expressed in transfected cells; host or cells: HEK293T cells stably expressing human RTP1S (V227I) and RTP2 (L220R)

[3] = test system: OR5A1; assay: as above; assay type: cell-based, human
[4] = molecular target: T3, OR10J5 (Homo sapiens, UniProt Q8NHC4); assay: OR10J5 (SEQ ID NO: 86) dose-response of isomers, EC20% relative to positive control; assay type: cell-based; settings: 20 % of positive control (100µM Mahonial); OR10J5 with SEQ ID NO: 86
T3 construct: expressed in transfected cells; host or cells: HEK293T cells stably expressing human RTP1S (V227I) and RTP2 (L220R)
T3 sequence (Q8NHC4 with tags, fused parts or gaps): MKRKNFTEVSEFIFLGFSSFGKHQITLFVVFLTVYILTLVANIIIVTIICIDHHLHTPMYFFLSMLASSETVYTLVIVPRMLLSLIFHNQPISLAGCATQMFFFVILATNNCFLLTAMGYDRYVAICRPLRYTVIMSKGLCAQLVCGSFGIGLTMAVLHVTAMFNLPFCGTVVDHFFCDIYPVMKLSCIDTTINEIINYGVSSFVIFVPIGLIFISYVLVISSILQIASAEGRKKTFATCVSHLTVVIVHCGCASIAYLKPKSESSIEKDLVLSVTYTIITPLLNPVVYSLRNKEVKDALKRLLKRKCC
Excerpt: Once a strong ligand is known for a given OR and the concentration of that ligand for maximal OR activation, this ligand (tested at its maximal inducing concentration) can be introduced as a positive control into the experiment, and fold-luciferase can be reported as % activation of the positive control according to the following formula: % activation = (Fold luciferase activation test compound−1)/(Fold luciferase activation positive control−1) × 100 [formula]
Activation of OR10J5 with the C-terminal domain of SEQ ID NO: 86 by (S,E)-10-hydroxy-4,8-dimethyldec-4-enal or (R,E)-10-hydroxy-4,8-dimethyldec-4-enal was measured in a dose-response analysis.
Potency of the two tested OR10J5 ligands is expressed as the EC20% value, which is the concentration that leads to a 20 % increase of the luciferase activity relative to the positive control (100µM, Mahonial; (4E)-9-hydroxy-5,9-dimethyl-4-Decenal). […] Because of the difference in EC20%, a much lower concentration of the (S,E)-isomer is needed to activate the receptor compared to the concentration needed of the (R,E)-isomer. […] This example further illustrates the usefulness of the improved assay to determine the most odor-active isomers.

[5] = molecular target: T4, OR10H5 (Homo sapiens, UniProt Q8NGA6); assay: Luciferase dose-response, wild-type vs changed C-terminus (SEQ ID NO: 86); assay type: cell-based; settings: wild-type
T4 construct: expressed in transfected cells; host or cells: HEK293T cells stably expressing human RTP1S (V227I) and RTP2 (L220R)
Excerpt: (§1) To create an expression plasmid, an OR coding sequence fused at the end of TM7 to the desired C-terminus sequence was synthesized by a DNA synthesis service provider (BioCat GmbH, Germany) and inserted into pcDNA3.1(+) (Invitrogen, MA, USA) downstream of the CMV promoter sequence (SEQ ID NO: 82) using BamHI and Notl restriction sites. All the synthetic OR nucleotide sequences described below in Examples 1-15 further contained at their N-terminus a nucleotide sequence encoding a signal peptide (mmLucy-FLAG-rho, SeQ ID NOs: 80, 81) and at the C-terminus the bgh terminator sequence (SEQ ID NO: 83). All the OR expression plasmids also contain a Kozak sequence (GCCACC) between the BamHI restriction site and the start codon of the signal peptide. These plasmids thus contain a constitutively expressed OR gene.
T4 sequence (Q8NGA6 whole entry): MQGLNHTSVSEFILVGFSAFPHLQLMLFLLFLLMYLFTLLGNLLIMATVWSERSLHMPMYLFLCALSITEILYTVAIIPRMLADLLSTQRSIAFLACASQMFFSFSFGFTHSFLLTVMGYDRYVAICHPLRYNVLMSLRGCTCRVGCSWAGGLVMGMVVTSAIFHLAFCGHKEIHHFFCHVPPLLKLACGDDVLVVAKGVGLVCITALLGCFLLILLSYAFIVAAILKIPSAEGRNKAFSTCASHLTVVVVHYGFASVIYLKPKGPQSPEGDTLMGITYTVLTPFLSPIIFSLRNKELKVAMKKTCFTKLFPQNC

[6] = molecular target: T5, OR10H5 (Homo sapiens, UniProt Q8NGA6); assay: as above; assay type: cell-based
T5 construct: expressed in transfected cells; host or cells: HEK293T cells stably expressing human RTP1S (V227I) and RTP2 (L220R)
Excerpt: as §1
T5 sequence (Q8NGA6 with tags, fused parts or gaps): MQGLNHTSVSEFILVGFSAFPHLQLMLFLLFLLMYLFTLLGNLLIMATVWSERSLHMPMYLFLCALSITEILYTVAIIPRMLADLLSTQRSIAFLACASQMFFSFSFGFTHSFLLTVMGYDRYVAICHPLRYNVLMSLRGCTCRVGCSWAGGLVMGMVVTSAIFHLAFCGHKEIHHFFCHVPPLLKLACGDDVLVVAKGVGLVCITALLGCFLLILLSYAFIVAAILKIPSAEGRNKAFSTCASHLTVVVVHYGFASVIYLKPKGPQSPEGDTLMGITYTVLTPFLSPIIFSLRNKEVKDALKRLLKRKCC

[7] = test system: OR10H5; assay: as above; assay type: cell-based, human
Excerpt: as §1

[8] = molecular target: T6, OR5AN1 (Homo sapiens, UniProt Q8NGI8); assay: Chimeric OR5AN1 with C-terminal sequence of OR1N2 (luciferase); assay type: cell-based
T6 construct: expressed in transfected cells; host or cells: HEK293T stably expressing human RTP1S(V227I) and RTP2(L220R)
Excerpt: Similarly, the C-terminal sequence of OR5AN1 was replaced with the C-terminal sequence of the ambrettolide receptor OR1 N2.

[9] = molecular target: T7, OR56A4 (Homo sapiens, UniProt Q8NGH8); assay: cell-based; assay type: cell-based
T7 construct: expressed in transfected cells; host or cells: HEK293T stably expressing human RTP1S(V227I) and RTP2(L220R)
T7 sequence (Q8NGH8 1-313): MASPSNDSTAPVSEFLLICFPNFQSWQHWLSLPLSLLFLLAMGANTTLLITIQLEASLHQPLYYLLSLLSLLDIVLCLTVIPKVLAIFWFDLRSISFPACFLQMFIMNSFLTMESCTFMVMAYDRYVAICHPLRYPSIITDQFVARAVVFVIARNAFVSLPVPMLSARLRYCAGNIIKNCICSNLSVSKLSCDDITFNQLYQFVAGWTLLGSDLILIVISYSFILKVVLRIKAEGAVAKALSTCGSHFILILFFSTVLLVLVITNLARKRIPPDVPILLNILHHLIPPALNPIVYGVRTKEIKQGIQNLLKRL
Excerpt: as §1
(§2) Activation of OR56A4 by acids of different chain length was further tested. […] Replacing the wild-type with the C-terminal sequence of the functional OR51 E1 did reduce activity. However, using the optimized sequence form Examples 1-5 led to a strong signal and much lower detection threshold upon addition of all three acids.

[10] = molecular target: T8, OR56A4 (Homo sapiens, UniProt Q8NGH8, T299N); assay: cell-based; assay type: cell-based
T8 construct: expressed in transfected cells; host or cells: HEK293T stably expressing human RTP1S(V227I) and RTP2(L220R)
Excerpt: as §1, §2

[11] = test system: OR56A4; assay: cell-based; assay type: cell-based, human
Excerpt: as §1, §2

[12] = molecular target: T9, OR14J1 (Homo sapiens, UniProt Q9UGF5); assay: Activation of modified OR14J1 (SEQ ID NO: 221), library hit and dose-response; assay type: cell-based; settings: SEQ ID 221
T9 construct: expressed in transfected cells; host or cells: HEK293T stably expressing human RTP1S(V227I) and RTP2(L220R) (general method)
Description: Parallel transfection experiments were conducted with all these plasmids (n = 408) and cells expressing the different OR were stimulated with one given ligand at a time, tested at the maximal, clearly non-cytotoxic concentration. In total 26 different ligands were tested on the full library of class II receptors.
Table 16. Ligands tested on the full library of OR and cognate receptors identified for these ligands

[13] = molecular target: T10, OR2T4 (Homo sapiens, UniProt Q8NH00, D328E/G331D/M330K); assay: cell-based; assay type: cell-based; settings: OR2T4 with SEQ ID NO: 86
T10 construct: expressed in transfected cells; host or cells: HEK293T cells stably expressing human RTP1S (V227I) and RTP2 (L220R)
T10 sequence (Q8NH00 with tags, fused parts or gaps D328E/M330K/G331D): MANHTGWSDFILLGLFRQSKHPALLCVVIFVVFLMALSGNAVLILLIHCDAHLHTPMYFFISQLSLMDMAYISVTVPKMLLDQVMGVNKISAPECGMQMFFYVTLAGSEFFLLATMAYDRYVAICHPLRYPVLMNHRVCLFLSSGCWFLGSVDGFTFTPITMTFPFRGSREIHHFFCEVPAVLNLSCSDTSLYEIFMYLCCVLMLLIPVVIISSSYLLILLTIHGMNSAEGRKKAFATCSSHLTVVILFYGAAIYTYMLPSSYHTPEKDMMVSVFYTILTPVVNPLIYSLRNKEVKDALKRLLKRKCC
Excerpt: as §1

[14] = molecular target: T11, OR2T11 (Homo sapiens, UniProt Q8NH01); assay: cell-based; assay type: cell-based
T11 construct: expressed in transfected cells; host or cells: HEK293T stably expressing human RTP1S(V227I) and RTP2(L220R)
Excerpt: as §1
T11 sequence (Q8NH01 whole entry): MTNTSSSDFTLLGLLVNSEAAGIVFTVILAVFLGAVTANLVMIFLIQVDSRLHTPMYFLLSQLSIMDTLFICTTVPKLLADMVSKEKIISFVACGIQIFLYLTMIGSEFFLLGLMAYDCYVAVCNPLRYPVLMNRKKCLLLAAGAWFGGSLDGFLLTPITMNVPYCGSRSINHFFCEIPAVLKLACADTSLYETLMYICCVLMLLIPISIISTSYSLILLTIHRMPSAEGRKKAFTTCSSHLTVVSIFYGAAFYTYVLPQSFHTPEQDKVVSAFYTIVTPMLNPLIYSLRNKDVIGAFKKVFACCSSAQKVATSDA

[15] = molecular target: T12, OR2T11 (Homo sapiens, UniProt Q8NH01); assay: cell-based; assay type: cell-based; remark: listed apart in the source
T12 construct: expressed in transfected cells; host or cells: HEK293T stably expressing human RTP1S(V227I) and RTP2(L220R)
Excerpt: as §1
T12 sequence (Q8NH01 with tags, fused parts or gaps): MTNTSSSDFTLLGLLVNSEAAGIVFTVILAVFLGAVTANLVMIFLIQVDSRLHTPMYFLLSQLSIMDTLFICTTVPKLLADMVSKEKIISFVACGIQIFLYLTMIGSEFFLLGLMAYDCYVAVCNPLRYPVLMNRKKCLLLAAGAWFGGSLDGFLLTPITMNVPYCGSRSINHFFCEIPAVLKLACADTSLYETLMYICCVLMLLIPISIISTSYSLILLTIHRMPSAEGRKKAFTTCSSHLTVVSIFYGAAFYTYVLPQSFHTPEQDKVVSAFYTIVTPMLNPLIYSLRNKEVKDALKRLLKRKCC

[16] = test system: OR2T11; assay: cell-based; assay type: cell-based, human
Excerpt: as §1

[17] = changed C-term SEQ ID NO: 86, read-out: Potency EC50

T2 sequence (Q8NGJ0 with tags, fused parts or gaps I300V): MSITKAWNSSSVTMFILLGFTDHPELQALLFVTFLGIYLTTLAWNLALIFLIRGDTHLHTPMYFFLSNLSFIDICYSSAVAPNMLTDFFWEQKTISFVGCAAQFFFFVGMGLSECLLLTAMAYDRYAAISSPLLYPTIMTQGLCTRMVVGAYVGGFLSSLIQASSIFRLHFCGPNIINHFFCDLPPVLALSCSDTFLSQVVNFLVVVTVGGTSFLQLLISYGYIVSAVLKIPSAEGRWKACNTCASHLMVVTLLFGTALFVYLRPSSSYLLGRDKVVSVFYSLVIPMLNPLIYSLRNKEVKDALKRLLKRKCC
T8 sequence (Q8NGH8 with tags, fused parts or gaps T299N): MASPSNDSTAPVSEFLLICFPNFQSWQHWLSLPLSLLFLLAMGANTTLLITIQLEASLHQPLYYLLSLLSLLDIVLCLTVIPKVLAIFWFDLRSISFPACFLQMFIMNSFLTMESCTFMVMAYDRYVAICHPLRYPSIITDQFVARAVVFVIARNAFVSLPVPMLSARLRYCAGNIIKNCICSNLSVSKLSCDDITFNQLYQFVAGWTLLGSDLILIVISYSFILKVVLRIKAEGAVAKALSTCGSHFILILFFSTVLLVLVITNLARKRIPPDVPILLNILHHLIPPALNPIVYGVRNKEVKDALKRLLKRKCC
T6 sequence (Q8NGI8 with tags, fused parts or gaps limits assumed): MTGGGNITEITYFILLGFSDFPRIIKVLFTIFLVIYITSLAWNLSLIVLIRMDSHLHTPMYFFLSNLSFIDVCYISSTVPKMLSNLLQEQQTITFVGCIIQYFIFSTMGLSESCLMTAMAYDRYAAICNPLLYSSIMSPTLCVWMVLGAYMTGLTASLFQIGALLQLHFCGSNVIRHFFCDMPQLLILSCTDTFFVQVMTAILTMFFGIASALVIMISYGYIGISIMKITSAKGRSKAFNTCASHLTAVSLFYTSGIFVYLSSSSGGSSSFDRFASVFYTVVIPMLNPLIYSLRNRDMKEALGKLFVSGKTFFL
T9 sequence (Q9UGF5 with tags, fused parts or gaps): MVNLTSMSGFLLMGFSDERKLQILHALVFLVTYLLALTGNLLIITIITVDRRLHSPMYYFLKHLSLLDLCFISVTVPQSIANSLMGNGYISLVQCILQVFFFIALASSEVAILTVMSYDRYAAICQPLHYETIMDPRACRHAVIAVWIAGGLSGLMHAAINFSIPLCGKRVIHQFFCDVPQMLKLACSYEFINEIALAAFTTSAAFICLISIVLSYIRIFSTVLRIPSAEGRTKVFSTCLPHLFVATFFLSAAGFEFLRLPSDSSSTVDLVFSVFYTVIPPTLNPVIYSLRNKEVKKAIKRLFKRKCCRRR

CC(=O)/C=C/C1=C(C)CCCC1(C)C [Beta-ionone]
pEC50 [1]: 5.26 | Detection threshold; concentration for 2-fold induction ([1]; wild-type): 19.1 µM | pEC50 [2]: 5.51 | Detection threshold; concentration for 2-fold induction ([2]; changed C-term. SEQ ID NO: 86): 3.2 µM | Comments on efficacy [3]: 4-fold lower maximal induction for wild-type | Fold-improvement potency [3]: 1.8 | Fold-improvement threshold [3]: 5.9

C/C(=C\CC[C@@H](C)CCO)CCC=O [(R,E)-10-hydroxy-4,8-dimethyldec-4-enal]
EC20% [4]: 24.4 µM

Cc1ccc2c(c1)OCC(=O)CO2 [Calone]
Detection threshold; concentration for 2-fold induction [5]: 60.1 µM | pEC50 ([5]; read-out: Potency EC50): 4.39 | pEC50 [6, 17]: 4.22 | Detection threshold; concentration for 2-fold induction ([6]; changed C-term. SEQ ID NO: 86): 24.3 µM | Comments on efficacy [7]: 3-fold lower maximal induction for wild-type | Fold-improvement threshold [7]: 2.5 | Fold-improvement potency ([7]; higher EC50 due to much higher efficacy of optimized C-terminus): 0.7 *

CC(=O)c1c(C)c([N+](=O)[O-])c(C(C)(C)C)c([N+](=O)[O-])c1C [Musk ketone]
functional response [8]: not showing any functional response

CCCCCCCCCCC(=O)O [Undecanoic acid]
Detection threshold; concentration for 2-fold induction [9]: 43 µM | activation of wild-type OR56A4 ([9]; wild-type): activated at high concentration | pEC50 ([9]; wild-type, read-out: Potency EC50): 3.94 | Detection threshold; concentration for 2-fold induction [10]: 3.2 µM | pEC50 [10, 17]: 4.66 | Fold-improvement potency [11]: 5.1 | Fold-improvement threshold [11]: 13.5

CC(C)(O)[Si](C1CC1)(C1CC1)C1CC1 [2-(tricyclopropylsilyl)propan-2-ol]
activation of OR14J1 [12]: activate OR14J1

C=CCSSCC=C [Diallyl disulfide]
ligands identified in screening of sulfur odorants [13]: good ligands | pEC50 ([14]; Potency EC50, wild-type): < 3.70 | Detection threshold; concentration for 2-fold induction ([14]; wild-type): >200 µM | pEC50 ([15]; Potency EC50, changed C-term SEQ ID NO: 86): 5.19 | Detection threshold; concentration for 2-fold induction ([15]; changed C-term. SEQ ID NO: 86): 2.03 µM | Comments on efficacy [16]: No induction wild-type | Fold-improvement potency [16]: >>40 | Fold-improvement threshold [16]: >100
